“Also recorded” adds a separate entry of the source.
Legend:
[1] = test system: Human primary keratinocytes; test: Long-term culture of keratinocytes: proliferation, morphology, cell condition; assay type: cell-based
Protocol: (§1) Human primary keratinocytes were cultured in EpiLife™ medium with or without Y or Y+A supplementation according to the schedule below, and analyzed for extracellular vesicle secretion. 10 μM Y-27632 (Wako) and 0.5 μM A-83-01 (Wako) was used. Collection media was serum-free EpiLife™ medium without inhibitors. Thus, depending on the experiment, or stage of the experiment, human epidermal keratinocytes were cultured in serum free media such as EpiLife™ Medium, without or without small molecule inhibitor(s), namely, 10 μM Y-27632 (Wako) alone, or 10 μM Y-27632 plus 0.5 μM A-83-01 (Wako). [table] Long-term culture of keratinocytes was carried out by adding low molecular weight compounds Y and Y+A.

[2] = test system: Human primary keratinocytes; test: Extracellular vesicle secretion by cultured keratinocytes, Nanosight analysis of culture supernatant; assay type: cell-based; settings: compared with normal KC-EVs / keratinocytes without inhibitors
Protocol: as §1, with “(Wako).” for “(Wako). [table] Long-term culture of keratinocytes was carried out by adding low molecular weight compounds Y and Y+A.”

CC(N)[C@H]1CC[C@H](C(=O)Nc2ccncc2)CC1 (mixture of isomers) [Y, (+/−)-trans-N-(4-Pyridyl)-4-(1-aminoethyl)-cyclohexanecarboxamide]
cell proliferation ([1]; compared with culturing normal cells without Y, 10 μM Y-27632): increased; also recorded: enhanced
cell growth, morphology and cell condition ([1]; long-term culture, micrographs): good cell growth, and good morphology; also recorded: cell morphology was the best
amount of EVs secreted [2]: increased; also recorded: larger number

From patent publication US20250235484A1, “METHODS FOR MAKING EXTRACELLULAR VESICLES, AND COMPOSITIONS AND METHODS OF USE THEREOF” (EVIA LIFE SCIENCES INC., priority 2021, published 2025)
